In PubChem BioAssay (NCI):
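In this assay, cells in 96-well plates receive the compound at five concentrations for 48 hours. Endpoints are linearly interpolated between the surrounding concentrations. GI50: concentration for 50% inhibition of growth. TGI denotes the concentration required for complete inhibition of growth.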

Experiments:
Experiment in all cases: NCI anticancer screen, dose series, 48 h
[1] = tested on: MALME-3M melanoma
[2] = tested on: MDA-MB-231 breast
[3] = tested on: K-562 leukemia
[4] = tested on: SNB-19 CNS
[5] = tested on: RPMI-8226 leukemia
[6] = tested on: NCI/ADR-RES ovarian
[7] = tested on: RXF 393 renal
[8] = tested on: SN12C renal
[9] = tested on: MOLT-4 leukemia
[10] = tested on: HOP-92 NSCLC

Row | Structure (SMILES) | TGI [1] | TGI [2] | TGI [3] | TGI [4] | TGI [5] | TGI [6] | TGI [7] | TGI [8] | TGI [9] | TGI [10] | GI50 [1] | GI50 [9] | GI50 [2] | GI50 [3] | GI50 [5] | GI50 [6] | GI50 [4] | GI50 [7] | GI50 [10] | GI50 [8]
1 | N#Cc1c(Cl)c2cc([N+](=O)[O-])ccc2n2c1nc1ccccc12 | 24.1 µM | 0.858 µM | > 36.7 µM | 20.3 µM | > 22.5 µM | 28 µM | 5.39 µM | > 100 µM |  |  |  |  |  |  |  |  |  |  |  | 
2 | C=C(C)C(=O)OC1CCC2(C)C(CCC3C2CCC2(C)C(c4ccc(=O)oc4)CC4OC432)C1 (stereo not drawn) | 26.4 µM |  | 32.9 µM | 72.5 µM | 20.1 µM | 26 µM | 9.95 µM | 24.1 µM | 15.5 µM | 9.96 µM |  |  |  |  |  |  |  |  |  | 
3 | COc1cc(/C=C2\CCCC3=C2NC(C)=NC3c2cc(OC)c(OC)c(OC)c2)cc(OC)c1OC (stereo not drawn) | 4.76 µM | > 100 µM | > 100 µM |  | 4.67 µM | > 100 µM |  |  | > 100 µM |  | 1.6 µM | 1.93 µM | 3.01 µM | 0.917 µM | 0.536 µM | 0.505 µM |  |  |  | 
4 | O=S1(=O)N(CCNc2nccc(-c3c(-c4cccc(O)c4)nc4sccn34)n2)CCN1Cc1ccccc1 | > 50 µM | 26.4 µM | > 50 µM | > 50 µM | 14.3 µM | > 50 µM | 9.37 µM | > 50 µM | 40.3 µM | > 50 µM | 0.108 µM | 7.84 µM | 3.06 µM | 3.44 µM | 4.41 µM | 14.1 µM | 36.4 µM | 0.982 µM | 12.9 µM | 9.5 µM
5 | Cc1nc2ccccc2n1C(=O)c1c(F)c(F)c(F)c(F)c1F | 57.5 µM | 32 µM | > 100 µM | > 100 µM | 38.3 µM | 42.4 µM | 33.5 µM | 30.6 µM | 27.1 µM | 27.9 µM |  |  |  |  |  |  |  |  |  | 
6 | Cc1cc(O)c(C(C)(C)C)cc1Sc1cc(C(C)(C)C)c(O)cc1C | 5.71 µM | 5.06 µM | 5.4 µM | 13 µM | 15.8 µM | 7.58 µM | 3.39 µM | > 100 µM | 8.07 µM | 6.17 µM | 2.32 µM | 2.67 µM | 2.16 µM | 1.95 µM | 2.97 µM | 2.78 µM | 3.72 µM | 1.82 µM | 2.49 µM | 2.91 µM
7 | Clc1ccccc1/C=C/c1cscn1 | > 100 µM |  | > 100 µM | > 100 µM | > 100 µM |  | > 100 µM | > 100 µM | > 100 µM |  |  |  |  |  |  |  |  |  |  | 
8 | C=CC1(C)CCC2=C(CCC3C(C)(C(=O)OC)CCCC23C)C1=O (stereo not drawn) | 32.8 µM |  | > 100 µM | > 100 µM | 55.9 µM |  |  | 33 µM |  |  |  |  |  |  |  |  |  |  |  | 
9 | O=C(N/N=C\c1cccc(O)c1)c1ccncc1 | > 100 µM | > 100 µM | > 100 µM | > 100 µM |  | > 100 µM | > 100 µM | > 100 µM | > 100 µM | > 100 µM |  |  |  |  |  |  |  |  |  | 
10 | CCOC(=O)C(O)(NC(=O)c1ccc(F)cc1)C(F)(F)F (stereo not drawn) | > 100 µM | > 100 µM | > 100 µM | > 100 µM | > 100 µM | > 100 µM | > 100 µM | > 100 µM | > 100 µM | > 100 µM |  |  |  |  |  |  |  |  |  | 
11 | O=C1NN(C2=NNC3(C(=O)N2)c2ccccc2-c2ccccc23)C(c2ccccc2)=N/C1=C/c1ccc(O)cc1 | 15 µg/mL | 71.7 µg/mL | > 150 µg/mL | > 150 µg/mL | > 150 µg/mL | > 150 µg/mL | > 150 µg/mL | > 150 µg/mL | 15 µg/mL |  | 15 µg/mL | 15 µg/mL | 26.2 µg/mL | 35.8 µg/mL | 70.6 µg/mL | 50.9 µg/mL | 94.9 µg/mL | 97 µg/mL |  | 74.2 µg/mL
